Experimental data reported in US20180200257A1, “METHODS FOR THE TREATMENT OF INFLAMMATORY DISORDERS” (Galapagos NV, priority 2015, published 2018).

Test system: Subjects With Active Crohn's Disease With Evidence of Mucosal Ulceration
Test: Study 3 - Inflammatory Bowel Disease Questionnaire (IBDQ) scores
Type: in vivo, human
Conditions: 200 mg, LOCF
Excerpt: Double-Blind, Randomized, Placebo-Controlled, Multi-Centre Study to Investigate the Efficacy and Safety of Compound 1 in Subjects With Active Crohn's Disease With Evidence of Mucosal Ulceration. This is a double-blind, randomized, placebo-controlled, multi-centre Phase 2 study to investigate the efficacy and safety of Compound 1 administered once daily for the treatment of active CD with evidence of mucosal ulceration. The pharmacokinetics (including a PK substudy) and pharmacodynamics of Compound 1 and metabolite in CD will also be characterised. A total of 180 eligible subjects will be randomized to receive Compound 1 or placebo in addition to their stable background treatment (eg, corticosteroids, aminosalicylates, or CD-related antibiotics). The study will consist of 2 parts, with total treatment duration of 20 weeks. Randomization in Part 1 will be stratified according the subject's previous anti-TNF exposure/response, CRP level at Screening, and oral corticosteroid use at visit Day -1. After the first 10 weeks of treatment in Part 1, patients will be re-randomized for Part 2 as shown in the diagram below and will be stratified according to the subject's clinical response, previous anti-TNF exposure/response, and oral corticosteroid use at visit Day -1. [table] The Inflammatory Bowel Disease Questionnaire (IBDQ) is a questionnaire for health-related quality of life assessment in patients with inflammatory bowel diseases: ulcerative colitis and Crohn's disease. It consists of 32 questions divided into four groups: bowel symptoms (10 items), systemic symptoms (5 items), emotional function (12 items) and social function (5 items). Every question has graded responses from 1 to 7, and thus the total score is ranging from 32 to 224 with higher scores representing better quality of life. The IBDQ is a validated assessment tool that reflects important changes in the quality of life of patients with IBD (adapted from […] et al, Inflamm Bowel Dis, Volume 10, Number 3, May 2004)

For `O=C(Nc1nc2cccc(-c3ccc(CN4CCS(=O)(=O)CC4)cc3)n2n1)C1CC1` [Compound 1, cyclopropanecarboxylic acid {5-[4-(1,1-dioxo-thiomorpholin-4-ylmethyl)-phenyl]-[1,2,4]triazolo[1,5-a]pyridin-2-yl}-amide], the “IBDQ Bowel symptoms” value (Baseline) was 41.07, the “IBDQ Emotional status” value (Baseline) was 45.91 and the “IBDQ Social functioning” value (Baseline) was 19.26. The “IBDQ Systemic symptoms” value (Baseline) was 16.32, the “IBDQ mean CFB” value (Baseline) was 123.00 and the “IBDQ Bowel symptoms” value (week 10) was 9.96. For the same compound, the “IBDQ Emotional status” value (week 10) was 12.07, the “IBDQ Social functioning” value (week 10) was 6.19 and the “IBDQ Systemic symptoms” value (week 10) was 5.73. For the same compound, the “IBDQ mean CFB” value (week 10) was 33.82.
